# Test results reported in patent US20240415804A1, “METHOD OF TREATING PANCREATIC CANCER” (University of South Florida, priority 2022, published 2024).
# Assays:
# [1] = test system: Panc02 cells; experiment: MTT cell viability assay, Panc02; assay type: cell-based, mouse; settings: API 40 μM, 24 h, vs DMSO vehicle
# Method: The methyl thiazol tetrazolium (MTT) assay was performed as described previously^58. Briefly, MiaPaCa-2, Panc02 and UN-KC-6141 cells were seeded in 96-well plates at a density of 3000 cells/well and allowed to attach overnight. PC cells were then treated with API (40 μM) or DMSO (1%) as vehicle control for 24 h at 37° C. in 5% CO2 incubator. After 24 h, media was replaced with 20 μL of MTT (1 mg/mL) (Sigma-Aldrich) and incubated for 3 h at 37° C. in 5% CO2. MTT was replaced with DMSO, and absorbance was read at 570 nm.
# MiaPaCa-2, Panc02 and UN-KC-6141 cells (2×10^5) were grown in 2 mL of growth medium in a 6-well tissue culture plate for 18-24 h until 60-80% confluency. The following solutions were prepared: Solution A) For each transfection, diluted 1 μL of miRNA-155 inhibitors (1 μM) (Table 2) or scrambled negative control miRNA (1 μM) (Qiagen, Germantown, MD, USA) into 50 μL Opti-MEM Transfection Medium (Invitrogen, Waltham, MA, USA). Solution B) For each transfection, diluted 3 μL of Hi-Perfect Transfection Reagent into 50 μL Opti-MEM Transfection Medium. Solution A was added directly to Solution B, mixed gently and the mixture incubated for 10-15 min at room temperature. […]
# [2] = test system: miR-155; experiment: miR-155 gene expression in tumors of HPC mice; assay type: in vivo, mouse; settings: API 25 mg/kg IP 3 times per week for 3-4 weeks, vs vehicle
# Method: Earlier studies have shown the anti-tumor activity of API in pre-clinical experimental models of cancer^41, 62-68. The inventors have reported that API increased survival and reduced tumor growth in a heterotopic (H) mouse model of PC (HPC)^55. To investigate if API targets miR-155 and regulates SHIP-1 in the TME of an HPC mouse model, HPC mice were treated with API at a dose of 25 mg/kg (IP) 3 times per week for 3-4 weeks. […] All female C57BL/6 mice (6-8 weeks of age) described in this study were purchased from Envigo (Indianapolis, IN, USA) and were acclimatize for one week in a pathogen-free animal facility (University of South Florida (USF) vivarium) before injections with PC cells. To generate heterotopic pancreatic cancer (HPC) models, mice were subcutaneously injected with 1.5×10^5 murine Panc02 (HPC mice) or 5×10^6 murine UN-KC-6141 cells (KC-HPC mice), in sterile 1× phosphate buffer saline (PBS), in the lower ventral abdomen, while control (CTRL) mice received sterile 1×PBS. […] Relative expression of miR-155 was calculated using the comparative […] method normalized to a mouse endogenous control gene snoRNA202 and human endogenous control gene U6 (Assay IDs: 001232 and 001093).
# [3] = test system: heterotopic (H) mouse model of PC (HPC); settings: earlier report (ref 55); cited from earlier work
compound,measurement,setting,value
"O=c1cc(-c2ccc(O)cc2)oc2cc(O)cc(O)c12 [API, 40,5,7-Trihydroxyflavone, 5,7-Dihydroxy-2-(4-hydroxyphenyl)-4-benzopyrone]",cell viability (MTT),[1],significantly inhibited
same,miR-155 gene expression in tumor,[2],significantly reduced
same,survival,[3],increased
same,tumor growth,[3],reduced
